Measurements as given in ChEMBL document CHEMBL1201862, “PubChem BioAssay data set” (2004).
Calls of active or inactive are those of the source.

Tests used:
[1] = cytotoxicity in BJeH fibroblasts, dose response, counter-screen for Ras selective lethality project, BJeH cells, dry powder (AID 493054); format: functional, cell-based
[2] = cytotoxicity in BJeHLT fibroblasts, dose response, counter-screen for Ras selective lethality project, BJeHLT cells, dry powder (AID 493052); format: functional, cell-based; details: Homo sapiens
[3] = viability loss in HRASV12 DRD fibroblasts, dose response, cell-based, DRD BJ fibroblasts, dry powder (AID 493049); format: functional
[4] = viability loss in BJeLR (HRASV12) cells, primary screen, Ras selective lethality project, cell-based, Alamar Blue, dry powder (AID 493045); format: functional
Wee1-like protein kinase = Wee1-like protein kinase (Homo sapiens, UniProt P30291); test: G2/M cell cycle arrest in HeLa, late-stage follow-up, mechanism study for Wee1 degradation inhibitor project, FACS, panel member Wee1 Degradation (AID 2088)
Chain of Wee1-like protein kinase (P30291 whole entry): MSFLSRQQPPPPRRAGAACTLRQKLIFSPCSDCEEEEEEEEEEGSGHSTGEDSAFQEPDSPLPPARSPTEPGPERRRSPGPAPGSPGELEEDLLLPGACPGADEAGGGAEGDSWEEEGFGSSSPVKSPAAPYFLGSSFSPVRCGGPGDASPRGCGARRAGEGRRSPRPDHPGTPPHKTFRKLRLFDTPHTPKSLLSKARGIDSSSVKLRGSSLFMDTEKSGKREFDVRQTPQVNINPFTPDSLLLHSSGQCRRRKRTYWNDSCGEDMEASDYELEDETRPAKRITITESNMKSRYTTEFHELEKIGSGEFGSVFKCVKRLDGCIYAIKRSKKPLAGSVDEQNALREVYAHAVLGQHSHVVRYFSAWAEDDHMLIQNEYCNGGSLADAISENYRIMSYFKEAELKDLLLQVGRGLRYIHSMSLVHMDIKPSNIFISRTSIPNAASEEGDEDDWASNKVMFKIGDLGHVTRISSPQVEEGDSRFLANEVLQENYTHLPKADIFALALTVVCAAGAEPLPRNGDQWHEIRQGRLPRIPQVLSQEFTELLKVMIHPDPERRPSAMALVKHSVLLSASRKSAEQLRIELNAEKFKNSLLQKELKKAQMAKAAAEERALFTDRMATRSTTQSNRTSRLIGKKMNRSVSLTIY

[5] = molecular target: G2/mitotic-specific cyclin-B1 (Homo sapiens, UniProt P14635); test: G2/M cell cycle arrest in HeLa, late-stage follow-up, mechanism study for Wee1 degradation inhibitor project, FACS, panel member Cyclin B Degradation (AID 2088)
Chain of G2/mitotic-specific cyclin-B1 (P14635 whole entry): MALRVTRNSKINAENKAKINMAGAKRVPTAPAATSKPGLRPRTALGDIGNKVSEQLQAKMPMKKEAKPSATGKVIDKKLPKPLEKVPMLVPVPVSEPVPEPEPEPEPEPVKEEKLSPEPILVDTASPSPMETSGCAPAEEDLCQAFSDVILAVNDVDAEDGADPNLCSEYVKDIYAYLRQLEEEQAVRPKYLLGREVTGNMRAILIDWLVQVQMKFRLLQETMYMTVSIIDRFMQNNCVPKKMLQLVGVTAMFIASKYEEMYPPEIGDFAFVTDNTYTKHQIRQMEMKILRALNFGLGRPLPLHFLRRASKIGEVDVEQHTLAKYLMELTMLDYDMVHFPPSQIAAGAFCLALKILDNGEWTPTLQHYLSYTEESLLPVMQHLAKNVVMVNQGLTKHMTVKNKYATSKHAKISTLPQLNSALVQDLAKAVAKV

[6] = molecular target: Matrix metalloproteinase-14 (Homo sapiens, UniProt P50281); test: Dose Response confirmation of uHTS hits for a small molecule inhibitors of MT1-MMP activation in a fluorescence assay set 1.; format: functional
[7] = human group III sPLA2 inhibitors, dose response, biochemical, QFRET, IC50 (AID 743457);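 note: green fluorescence rise as the enzyme cleaves BODIPY PC-A2 in liposomes; potency for inhibition of the enzyme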
[8] = Fluorescence-based cell-based high throughput dose response assay for inhibitors of the interaction of nucleotide-binding oligomerization domain containing 2 (NOD2) and the receptor-interacting serine-threonine kinase 2 (RIPK2).; format: functional; details: Homo sapiens
Nonstructural protein 1 = Nonstructural protein 1 (Influenza A virus, UniProt Q194T2); format: functional, Influenza A virus (A/California/07/2009(H1N1))
Chain of Nonstructural protein 1 (Q194T2 whole entry): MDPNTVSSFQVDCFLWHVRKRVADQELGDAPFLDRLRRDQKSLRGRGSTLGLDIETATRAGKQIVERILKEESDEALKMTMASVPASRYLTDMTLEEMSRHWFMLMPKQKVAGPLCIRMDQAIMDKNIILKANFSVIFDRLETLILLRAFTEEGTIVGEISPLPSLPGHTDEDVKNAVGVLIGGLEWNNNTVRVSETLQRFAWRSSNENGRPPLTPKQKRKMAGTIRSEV

[9] = molecular target: T1, Rac GTPase-activating protein 1 (Homo sapiens, UniProt Q9H0H5); test: MgcRacGAP GTPase-activating activity inhibitors, confirmation, biochemical, ADP Hunter fluorescence, primary and confirmatory (AID 624330); format: functional
T1 sequence (Q9H0H5 whole entry): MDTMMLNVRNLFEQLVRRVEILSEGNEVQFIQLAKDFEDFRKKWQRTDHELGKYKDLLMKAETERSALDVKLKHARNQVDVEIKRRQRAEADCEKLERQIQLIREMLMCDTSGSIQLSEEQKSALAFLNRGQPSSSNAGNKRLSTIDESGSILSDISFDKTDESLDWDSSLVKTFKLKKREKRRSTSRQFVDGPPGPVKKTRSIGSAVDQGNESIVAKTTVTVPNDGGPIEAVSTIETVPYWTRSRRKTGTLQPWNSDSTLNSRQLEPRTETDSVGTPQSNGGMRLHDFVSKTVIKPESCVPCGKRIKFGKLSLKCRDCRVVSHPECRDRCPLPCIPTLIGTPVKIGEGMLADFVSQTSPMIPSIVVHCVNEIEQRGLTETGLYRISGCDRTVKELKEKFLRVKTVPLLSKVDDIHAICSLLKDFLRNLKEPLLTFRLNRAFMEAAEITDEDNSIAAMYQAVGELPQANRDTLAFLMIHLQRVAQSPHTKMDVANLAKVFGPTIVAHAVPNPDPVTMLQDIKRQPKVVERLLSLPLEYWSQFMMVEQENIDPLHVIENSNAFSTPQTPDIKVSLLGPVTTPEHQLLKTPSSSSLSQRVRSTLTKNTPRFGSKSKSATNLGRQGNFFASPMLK

Beta Lactamase = Beta Lactamase (Pseudomonas aeruginosa, UniProt Q932Y6); test: beta-lactamase reporter inhibitor potency, dose response, artefact control for NOD2-RIPK2 interaction inhibitor project, BLA reporter cells, FRET fluorescence (AID 651552); format: functional, cell-based
Chain of Beta Lactamase (Q932Y6 whole entry): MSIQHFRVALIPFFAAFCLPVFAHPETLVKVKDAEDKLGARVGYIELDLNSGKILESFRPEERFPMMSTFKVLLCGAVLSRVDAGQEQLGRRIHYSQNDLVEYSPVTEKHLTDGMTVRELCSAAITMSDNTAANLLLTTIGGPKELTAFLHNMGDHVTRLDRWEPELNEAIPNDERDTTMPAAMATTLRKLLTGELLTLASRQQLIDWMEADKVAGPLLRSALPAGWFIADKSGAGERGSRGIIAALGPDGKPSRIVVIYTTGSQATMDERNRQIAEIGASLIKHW

[10] = HeLa cell cytotoxicity, dose response, cytotoxicity control for MgcRacGAP inhibitor project (AID 624300); format: functional
[11] = inhibition of ADP-Glo detection reagents, dose response, artefact control for CDK5 inhibitor project, biochemical, luminescence, cherry-picked samples, set 2 (AID 504546); format: functional
[12] = molecular target: Heat shock protein HSP 90-alpha (Homo sapiens, UniProt P07900); format: functional, organism-based
[13] = molecular target: Glucose-6-phosphate 1-dehydrogenase (Homo sapiens, UniProt P11413); test: human G6PD enzyme inhibitors, dose response, selectivity assay for P. falciparum G6PD inhibitor project, biochemical, fluorescence (AID 504792); format: functional
[14] = molecular target: Cyclin-dependent kinase 5/CDK5 activator 1 (Homo sapiens, UniProt Q00535); test: CDK5/p35 kinase inhibitors, dose response, biochemical, cherry-picked samples, set 2 (AID 504545)
Chain of Cyclin-dependent kinase 5/CDK5 activator 1 (Q00535 whole entry): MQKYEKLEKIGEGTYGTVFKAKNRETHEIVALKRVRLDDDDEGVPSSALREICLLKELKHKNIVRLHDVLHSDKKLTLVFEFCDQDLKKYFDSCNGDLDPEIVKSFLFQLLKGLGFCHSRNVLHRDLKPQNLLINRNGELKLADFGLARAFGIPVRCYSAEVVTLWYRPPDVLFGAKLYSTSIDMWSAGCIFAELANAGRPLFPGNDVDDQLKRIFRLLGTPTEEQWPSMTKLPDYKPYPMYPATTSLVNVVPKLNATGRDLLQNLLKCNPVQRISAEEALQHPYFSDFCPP
Chain of Cyclin-dependent kinase 5/CDK5 activator 1 (Q15078 whole entry, further chain): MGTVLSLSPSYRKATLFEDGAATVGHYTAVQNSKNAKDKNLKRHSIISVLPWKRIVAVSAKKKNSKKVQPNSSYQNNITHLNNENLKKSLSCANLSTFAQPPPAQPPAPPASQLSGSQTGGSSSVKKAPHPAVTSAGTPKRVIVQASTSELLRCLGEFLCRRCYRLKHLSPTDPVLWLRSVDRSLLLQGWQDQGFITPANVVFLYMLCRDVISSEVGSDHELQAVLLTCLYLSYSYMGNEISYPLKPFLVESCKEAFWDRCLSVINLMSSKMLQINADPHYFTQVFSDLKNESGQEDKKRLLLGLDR

[15] = molecular target: T2, Histone-lysine N-methyltransferase NSD2 (Homo sapiens, UniProt O96028); format: biochemical
T2 sequence (O96028 whole entry): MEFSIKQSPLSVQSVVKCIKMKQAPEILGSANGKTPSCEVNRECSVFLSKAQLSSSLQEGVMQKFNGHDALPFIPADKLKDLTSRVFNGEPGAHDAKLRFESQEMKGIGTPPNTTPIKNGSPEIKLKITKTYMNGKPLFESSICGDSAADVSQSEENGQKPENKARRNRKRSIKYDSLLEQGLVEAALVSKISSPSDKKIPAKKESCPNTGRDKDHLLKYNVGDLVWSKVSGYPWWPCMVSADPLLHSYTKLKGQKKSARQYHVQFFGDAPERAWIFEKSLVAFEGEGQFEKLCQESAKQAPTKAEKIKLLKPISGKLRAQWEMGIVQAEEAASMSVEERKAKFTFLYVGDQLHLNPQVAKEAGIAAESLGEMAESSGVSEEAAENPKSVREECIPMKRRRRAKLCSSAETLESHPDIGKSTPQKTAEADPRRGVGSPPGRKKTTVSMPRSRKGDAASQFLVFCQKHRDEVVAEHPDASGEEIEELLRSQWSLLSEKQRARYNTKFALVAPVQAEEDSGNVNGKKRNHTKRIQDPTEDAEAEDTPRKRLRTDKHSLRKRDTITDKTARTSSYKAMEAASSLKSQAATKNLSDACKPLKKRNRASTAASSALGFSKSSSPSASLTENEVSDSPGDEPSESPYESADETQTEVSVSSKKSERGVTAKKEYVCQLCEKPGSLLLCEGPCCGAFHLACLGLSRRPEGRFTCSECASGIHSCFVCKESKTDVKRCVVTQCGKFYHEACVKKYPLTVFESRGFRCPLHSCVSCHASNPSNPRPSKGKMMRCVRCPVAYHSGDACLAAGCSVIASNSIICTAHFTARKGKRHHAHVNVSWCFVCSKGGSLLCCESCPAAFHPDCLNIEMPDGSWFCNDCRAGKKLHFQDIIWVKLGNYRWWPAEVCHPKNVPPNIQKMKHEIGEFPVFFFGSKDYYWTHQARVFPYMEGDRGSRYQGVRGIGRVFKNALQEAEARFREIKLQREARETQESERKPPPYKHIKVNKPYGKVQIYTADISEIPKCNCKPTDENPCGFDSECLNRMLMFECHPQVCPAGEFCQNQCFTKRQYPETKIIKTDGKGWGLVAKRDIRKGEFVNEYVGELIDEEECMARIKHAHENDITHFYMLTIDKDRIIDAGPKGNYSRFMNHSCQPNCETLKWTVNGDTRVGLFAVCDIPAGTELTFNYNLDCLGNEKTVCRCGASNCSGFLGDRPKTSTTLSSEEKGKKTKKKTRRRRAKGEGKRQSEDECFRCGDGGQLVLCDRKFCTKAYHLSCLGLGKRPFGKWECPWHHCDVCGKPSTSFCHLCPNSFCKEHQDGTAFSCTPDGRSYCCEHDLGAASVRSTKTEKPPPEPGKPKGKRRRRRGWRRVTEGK

[16] = molecular target: Scavenger receptor class B member 1 (Mus musculus, UniProt Q61009); test: inhibitors of SR-BI mediated HDL lipid uptake, dose response, ldlA[mSR-BI] cells, fluorescence, cherry pick (AID 493194); format: functional, cell-based;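 note: cellular uptake of fluorescent DiI-labeled HDL measured as cell fluorescence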
[17] = Luminescence Cell-Based Dose Response HTS to Identify Inhibitors of 5'UTR Stem-Loop Driven Prion Protein mRNA Translation in H4 Neuroglioblastoma Cells. [Related pubchem assays: 1827 (Project Summary), 1813 (Primary HTS)]; format: functional
[18] = inhibitors of firefly luciferase expression or activity, dose response, H4 neuroglioma cells, luminescence (AID 1990); format: functional, cell-based
[19] = cytotoxicity in HEK-293T cells, dose response, cytotoxicity control for BCR NF-kB inhibitor project, luminescence, B-cell screen hits (AID 489021); format: functional, cell-based;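 note: HEK-293T cells carrying an NF-kB luciferase reporter; cells exposed to compound for about 14 hours before viability readout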
[20] = inhibitors of SNCA 5'UTR-driven reporter translation, confirmation, H4 neuroglioma cells, luminescence (AID 1988); format: functional, cell-based
cells = format: functional
[21] = inhibition of K1F phage lysis, E. coli UTI89, bacterial capsule biogenesis inhibitors, alamar blue (AID 488966); format: functional
[22] = molecular target: Female germline-specific tumor suppressor gld-1 (Caenorhabditis elegans, UniProt Q17339); test: inhibitors of GLD-1 binding to TGE RNA, dose response, biochemical, fluorescence polarization, C. elegans (AID 2802);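 note: fluorescence polarization of labeled TGE RNA bound by purified gld-1 protein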
Genome polyprotein = Genome polyprotein (dengue virus type 2, UniProt P29990); test: Dengue-2 NS5 methyltransferase inhibitors, primary screen, biochemical, confirmation dose response (AID 588689); format: functional
Chain of Genome polyprotein (P29990 2492-3391 limits assumed): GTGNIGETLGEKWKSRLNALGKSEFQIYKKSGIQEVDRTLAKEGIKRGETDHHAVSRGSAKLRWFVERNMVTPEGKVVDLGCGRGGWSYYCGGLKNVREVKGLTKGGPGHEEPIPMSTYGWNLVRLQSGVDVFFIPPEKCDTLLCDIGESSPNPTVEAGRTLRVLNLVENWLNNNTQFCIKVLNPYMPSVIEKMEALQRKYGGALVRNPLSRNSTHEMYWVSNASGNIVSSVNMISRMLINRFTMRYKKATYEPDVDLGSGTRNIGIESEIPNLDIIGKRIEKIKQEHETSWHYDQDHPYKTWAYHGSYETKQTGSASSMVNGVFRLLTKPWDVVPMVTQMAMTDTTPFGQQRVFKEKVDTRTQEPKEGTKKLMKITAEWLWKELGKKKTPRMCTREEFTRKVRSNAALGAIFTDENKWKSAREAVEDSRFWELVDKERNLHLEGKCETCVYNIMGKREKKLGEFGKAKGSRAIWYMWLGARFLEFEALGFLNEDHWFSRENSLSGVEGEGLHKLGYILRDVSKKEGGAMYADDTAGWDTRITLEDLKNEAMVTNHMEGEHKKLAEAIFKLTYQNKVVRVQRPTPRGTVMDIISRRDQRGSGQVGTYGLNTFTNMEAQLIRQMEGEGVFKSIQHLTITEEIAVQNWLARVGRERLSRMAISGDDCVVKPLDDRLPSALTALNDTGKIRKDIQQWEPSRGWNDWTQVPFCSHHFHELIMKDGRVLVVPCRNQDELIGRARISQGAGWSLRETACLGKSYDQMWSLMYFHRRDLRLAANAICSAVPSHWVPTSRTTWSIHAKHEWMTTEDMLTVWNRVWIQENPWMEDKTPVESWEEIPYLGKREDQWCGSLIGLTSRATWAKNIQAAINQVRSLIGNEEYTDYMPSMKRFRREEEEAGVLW

Protein Rev = Protein Rev (Human immunodeficiency virus type 1 group M subtype B (isolate HXB2)(HIV-1), UniProt P04618); test: inhibitors of Rev binding to RRE RNA, dose response, biochemical, fluorescence polarization, HIV-1 (AID 434976); design: species or system Human immunodeficiency virus 1
Chain of Protein Rev (P04618 whole entry): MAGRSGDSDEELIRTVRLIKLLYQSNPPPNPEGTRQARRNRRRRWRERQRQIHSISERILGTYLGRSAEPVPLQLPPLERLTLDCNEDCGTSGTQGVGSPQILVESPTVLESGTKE

Vero = Vero cell cytotoxicity, cytotoxicity control for flavivirus capping enzyme inhibitors (AID 588742); format: functional; details: Chlorocebus sabaeus
[23] = molecular target: T3, Kappa-type opioid receptor (Homo sapiens, UniProt P41145); format: functional
T3 sequence (P41145 whole entry): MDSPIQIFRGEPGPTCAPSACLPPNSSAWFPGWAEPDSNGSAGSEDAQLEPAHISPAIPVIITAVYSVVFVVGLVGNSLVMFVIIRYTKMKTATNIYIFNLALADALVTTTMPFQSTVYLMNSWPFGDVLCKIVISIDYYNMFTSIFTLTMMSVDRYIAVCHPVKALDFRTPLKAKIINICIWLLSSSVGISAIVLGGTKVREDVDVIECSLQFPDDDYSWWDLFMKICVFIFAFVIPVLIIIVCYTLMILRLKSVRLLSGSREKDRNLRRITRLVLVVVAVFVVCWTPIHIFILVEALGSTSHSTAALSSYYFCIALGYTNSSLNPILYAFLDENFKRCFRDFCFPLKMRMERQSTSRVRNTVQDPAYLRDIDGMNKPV

[24] = molecular target: T4, Corticotropin-releasing factor receptor 2/Corticotropin-releasing factor-binding protein (Homo sapiens, UniProt P24387+Q13324); test: activators of CRF receptor 2 with binding protein – uHTS hits, confirmation (AID 602473); format: functional; details: read-out: EC50_Mean
T4 sequence (Q13324 whole entry): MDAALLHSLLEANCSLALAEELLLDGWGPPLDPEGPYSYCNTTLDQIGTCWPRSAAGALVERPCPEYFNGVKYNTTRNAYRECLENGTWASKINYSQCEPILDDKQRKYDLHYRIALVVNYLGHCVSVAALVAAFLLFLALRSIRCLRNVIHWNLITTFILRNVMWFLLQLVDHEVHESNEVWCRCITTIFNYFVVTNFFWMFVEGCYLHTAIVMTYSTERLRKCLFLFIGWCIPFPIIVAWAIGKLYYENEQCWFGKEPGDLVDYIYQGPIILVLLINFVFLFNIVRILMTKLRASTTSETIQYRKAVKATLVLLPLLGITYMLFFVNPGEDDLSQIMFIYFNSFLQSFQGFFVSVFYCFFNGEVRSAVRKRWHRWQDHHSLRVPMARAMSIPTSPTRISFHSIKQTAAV
T4 sequence (P24387 whole entry): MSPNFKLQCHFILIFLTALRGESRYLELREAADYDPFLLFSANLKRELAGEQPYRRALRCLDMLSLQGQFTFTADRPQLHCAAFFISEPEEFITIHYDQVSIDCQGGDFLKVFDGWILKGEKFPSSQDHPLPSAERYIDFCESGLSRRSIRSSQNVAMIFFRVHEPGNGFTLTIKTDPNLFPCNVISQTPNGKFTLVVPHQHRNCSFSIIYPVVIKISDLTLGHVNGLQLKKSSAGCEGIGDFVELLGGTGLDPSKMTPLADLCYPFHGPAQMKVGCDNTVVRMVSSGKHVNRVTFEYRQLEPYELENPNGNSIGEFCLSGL

[25] = molecular target: T3, Kappa-type opioid receptor; format: functional; remark: listed apart in the source
Beta-galactosidase [26] = molecular target: T5, Beta-galactosidase (Escherichia coli, UniProt Q8VNN2); format: functional
T5 sequence (Q8VNN2 whole entry): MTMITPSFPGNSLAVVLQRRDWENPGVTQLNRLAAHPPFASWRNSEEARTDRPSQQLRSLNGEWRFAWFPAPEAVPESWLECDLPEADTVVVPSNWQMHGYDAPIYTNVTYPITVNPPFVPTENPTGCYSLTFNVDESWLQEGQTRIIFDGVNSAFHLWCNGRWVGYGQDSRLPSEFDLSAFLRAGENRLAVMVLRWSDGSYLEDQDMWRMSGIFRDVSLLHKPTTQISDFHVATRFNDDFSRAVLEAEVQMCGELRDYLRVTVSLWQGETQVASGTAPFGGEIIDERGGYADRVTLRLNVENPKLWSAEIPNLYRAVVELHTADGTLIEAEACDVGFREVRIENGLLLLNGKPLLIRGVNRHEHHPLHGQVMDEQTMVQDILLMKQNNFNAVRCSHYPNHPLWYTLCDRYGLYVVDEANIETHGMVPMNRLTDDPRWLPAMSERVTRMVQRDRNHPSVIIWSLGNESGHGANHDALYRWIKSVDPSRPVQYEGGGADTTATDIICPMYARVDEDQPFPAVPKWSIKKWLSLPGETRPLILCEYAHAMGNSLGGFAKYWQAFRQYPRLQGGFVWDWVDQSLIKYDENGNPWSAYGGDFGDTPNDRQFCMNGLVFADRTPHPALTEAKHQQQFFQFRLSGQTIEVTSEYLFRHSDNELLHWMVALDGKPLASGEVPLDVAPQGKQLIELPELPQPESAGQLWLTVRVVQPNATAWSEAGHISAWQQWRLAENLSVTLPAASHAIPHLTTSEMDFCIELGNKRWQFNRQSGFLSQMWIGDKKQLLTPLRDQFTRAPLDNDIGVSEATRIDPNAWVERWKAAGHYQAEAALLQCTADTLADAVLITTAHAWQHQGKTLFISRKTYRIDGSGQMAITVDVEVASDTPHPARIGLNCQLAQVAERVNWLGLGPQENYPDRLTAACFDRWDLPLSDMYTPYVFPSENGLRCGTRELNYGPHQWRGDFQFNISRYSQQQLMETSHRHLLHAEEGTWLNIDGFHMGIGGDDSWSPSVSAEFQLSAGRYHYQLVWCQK

Beta-galactosidase [27] = molecular target: T5, Beta-galactosidase; test: beta-galactosidase enzyme inhibitors and activators, dose response, artefact control for CCR6 antagonist project, biochemical, E. coli enzyme, set 3 (AID 504712); format: functional

COc1ccc(N(CC(=O)NCCc2ccccc2)C(=O)CCl)cc1Cl
AC50 [1]: 0.793 µM (active) | AC50 [2]: 0.531 µM (active) | AC50 [3]: 0.223 µM (active) | AC50 [4]: 0.231 µM (active)

Cc1cc(O)nc(-n2nc(C)cc2NC(=O)Cc2ccc(F)cc2)n1
EC50 (Wee1-like protein kinase): > 49.7 µM (inactive) | EC50 [5]: > 49.7 µM (inactive)

CCN(CC)c1ccc(C(=C2C=CC(=[N+](CC)CC)C=C2)c2ccc(N(CC)CC)cc2)cc1
IC50 [6]: > 80 µM (inactive) | IC50 [7]: > 40.6 µM (inactive) | IC50 [8]: 10.9 µM (inactive) | IC50 (Nonstructural protein 1): 0.774 µM (active) | IC50 [9]: 20.6 µM (active) | IC50 (Beta Lactamase): 10.8 µM (inactive) | CC50 [10]: 4.15 µM (active) | AC50 [11]: 31.9 µM (active) | AC50 [12]: 0.57 µM (active) | IC50 [13]: 44.7 µM (inactive) | AC50 [14]: 12.3 µM (active) | AC50 [15]: 1.01 µM (active)

CCOc1ccc(NS(=O)(=O)c2ccc(C(=O)NNC(=O)c3ccccc3O)cc2)cc1
AC50 [16]: 11.1 µM (active)

CCCCOc1ccc(NC(=O)C(=O)NCCCn2ccnc2)cc1
EC50 [17]: 18.5 µM (active) | EC50 [18]: 13.9 µM (active) | IC50 [19]: > 80 µM (inactive) | EC50 [20]: 10.6 µM (active)

CCc1ccc(NC(=O)C(=O)NNC(=O)c2cccc(OC)c2)cc1
IC50 (cells): 10.5 µM (active) | IC50 [21]: > 75 µM (active)

CCOc1ccc2nc(N3CCCN(C(=O)Nc4ccccc4C)CC3)c(C#N)cc2c1
IC50 [22]: > 59.7 µM (inactive) | IC50 (Genome polyprotein): 38.7 µM (active) | IC50 (Protein Rev): 20.3 µM (not active) | CC50 (Vero): > 40 µM (active)

Cc1ccc(-n2[nH]c(C)c(/C=N/N3C(=O)c4cccc5cccc(c45)C3=O)c2=O)cc1
IC50 [23]: 6.32 µM (active) | EC50 [24]: 3.95 µM (active) | IC50 [25]: > 32 µM | EC50 (Beta-galactosidase [26]): > 31.5 µM (inactive) | IC50 (Beta-galactosidase [27]): > 66.6 µM (inactive)
